Measured values reported in PubChem BioAssay AID1845204 (Molecular Pharmacology Branch, DTP, NCI, 2023).
pIC50: −log10 of the molar value.

System: HSSY-II tumor spheroid viability
Assay: Anticancer human tumor HSSY-II cell line growth inhibition;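 further: spheroids exposed to compounds for seven days before reading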;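 on viability, T/C: percent of DMSO vehicle control viability so 100% = untreated level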
Conditions: spheroids with HUVEC and MSC; for pIC50: curve of first compound; for viability, T/C: stronger effect = lower value; active means viability on the fitted dose curve at most 10% of control; inactive means the rest
Source text: Multicellular complex tumor spheroid response to DNA repair inhibitors in combination with DNA-damaging drugs
This study explores the anticancer activities of DNA-damaging drugs and inhibitors of DNA damage repair, both as single agents and in combinations. Complex tumor spheroids comprised of malignant cells, endothelial cells and mesenchymal stem cells served as an in vitro model for human solid tumors. This model system incorporates physiologically relevant features and patient-derived or established malignant cell lines with clinically relevant genetic alterations from many tumor types. Twenty-six patient-derived or established malignant cell lines were evaluated representing sarcoma, melanoma, small cell lung cancer (SCLC), non-small cell lung cancer (NSCLC), as well as bladder, ovarian and pancreatic cancers. The concentration ranges selected for each drug and investigational agent were based upon clinically achievable concentrations if the clinical Cmax of the agent was known.
Compounds. The drugs and compounds olaparib (NSC753686), talazoparib (NSC767125), berzosertib (NSC777718), elimusertib (NSC800525), nedisertib (NSC802822), VX-984 (NSC792969), AZD-1390 (NSC803789), temozolomide (NSC362856), topotecan (NSC609699), trabectedin (NSC813783), staurosporine (NSC755774), and gemcitabine (NSC613327) were obtained from the National Cancer Institute (NCI) Developmental Therapeutics Program Chemical Repository. The FDA-approved anticancer drug set is available from the Developmental Therapeutics Program at https://dtp.cancer.gov/organization/dscb/obtaining/available_plates.htm. […] The stock solutions were prepared in dimethyl sulfoxide (DMSO, Sigma-Aldrich, St. Louis, MO, cat. D2650) at 400-fold the tested concentration and stored at -70 degrees C. Prior to their use, the stock solutions were diluted in fresh medium and the final DMSO concentration in the assay was 0.25% (v/v). All drugs and investigational agents were tested over a range starting from a high concentration at or near the clinical Cmax and decreasing in half-log increments. If the clinical Cmax for an agent had not been determined, the highest concentration tested was 10 microM.
Cell Lines. The patient-derived cancer cell (PDC) lines: 156681-154-R-J1-PDC, 283228-195-R-J1-PDC, 287954-098-R-J1-PDC, 292921-168-R-J2-PDC, 349418-098-R-PDC, 425362-245-T-J1-PDC, 556581-035-R-J1-PDC, and BL0293-F563-PDC were received from the NCI Patient-Derived Models Repository (PDMR, https://pdmr.cancer.gov). The established cell lines HS-SY-2 (RRID:CVCL_8719), MPNST, and SYO-1 (RRID:CVCL_7146) were obtained from the Sloan Kettering Institute. The alveolar soft parts sarcoma cell line ASPS-1 (RRID:CVCL_S738) was established at the NCI and grown from internal seed stocks. The following established cell lines were purchased from the American Type Culture Collection (ATCC, Manassas, VA): G-401 (ATCC, cat. CRL-1441, RRID:CVCL_0270), SW982 (ATCC, cat. HTB-93, RRID:CVCL_1734), VA-ES-BJ (ATCC, cat. CRL-2138, RRID:CVCL_1785), NCI-H719 (ATCC, cat. CRL-5837, RRID:CVCL_1582), NCI-H196 (ATCC, cat. CRL-5823, RRID:CVCL_1509), NCI-H841 (ATCC, cat. CRL-5845, RRID:CVCL_1595), NCI-H1618 (ATCC, cat. CRL-5879, RRID:CVCL_1480), NCI-H1876 (ATCC, cat. CRL-5902, RRID:CVCL_1503), DMS 114 (ATCC, cat. CRL-2066; RRID:CVCL_1174), NCI-H211 (ATCC, cat. CRL-5824; RRID:CVCL_1529), and SW 1271 (ATCC, cat. CRL-2177, RRID:CVCL_1716). The small cell lung cancer cell line COR-L88 was purchased from Sigma-Aldrich (cat. 92031917-1VL, RRID:CVCL_1141). The non-small cell lung cancer cell lines NCI-H226 (RRID:CVCL_1544) and NCI-H322M (RRID:CVCL_1557) were established at the NCI and grown from internal seed stocks. Pooled donor human umbilical vein endothelial cells (HUVEC, Lonza, cat. CC-2519) and human mesenchymal stem cells (hMSC, Lonza, cat. PT-2501) were purchased from Lonza (Walkersville, MD).
Cell Culture. All cells were maintained in an incubator at 37 degrees C and 5% CO2 with 95% humidity. […]

[1] = second compound 0.003 µM, first compound 0.00949 µM
[2] = second compound 0.003 µM, first compound 0.03 µM
[3] = second compound 0.003 µM, first compound 0.0949 µM
[4] = second compound 0.003 µM, first compound 0.3 µM
[5] = second compound 0.003 µM, first compound 0.949 µM
[6] = second compound 0.003 µM, first compound 3 µM
[7] = second compound 0.00949 µM, first compound 0.00949 µM
[8] = second compound 0.00949 µM, first compound 0.03 µM
[9] = second compound 0.00949 µM, first compound 0.0949 µM
[10] = second compound 0.00949 µM, first compound 0.3 µM
[11] = second compound 0.00949 µM, first compound 0.949 µM
[12] = second compound 0.00949 µM, first compound 3 µM
[13] = second compound 0.03 µM, first compound 0.00949 µM
[14] = second compound 0.03 µM, first compound 0.03 µM
[15] = second compound 0.03 µM, first compound 0.0949 µM
[16] = second compound 0.03 µM, first compound 0.3 µM
[17] = second compound 0.03 µM, first compound 0.949 µM
[18] = second compound 0.03 µM, first compound 3 µM
[19] = second compound 0.0949 µM, first compound 0.00949 µM
[20] = second compound 0.0949 µM, first compound 0.03 µM
[21] = second compound 0.0949 µM, first compound 0.0949 µM
[22] = second compound 0.0949 µM, first compound 0.3 µM
[23] = second compound 0.0949 µM, first compound 0.949 µM
[24] = second compound 0.0949 µM, first compound 3 µM
[25] = second compound 0.3 µM, first compound 0.00949 µM
[26] = second compound 0.3 µM, first compound 0.03 µM
[27] = second compound 0.3 µM, first compound 0.0949 µM
[28] = second compound 0.3 µM, first compound 0.3 µM
[29] = second compound 0.3 µM, first compound 0.949 µM
[30] = second compound 0.3 µM, first compound 3 µM

CNCc1ccc(-c2cc(-c3nc(-c4ccc(S(=O)(=O)C(C)C)cc4)cnc3N)on2)cc1 + CC[C@@]1(O)C(=O)OCc2c1cc1n(c2=O)Cc2cc3c(CN(C)C)c(O)ccc3nc2-1
inactive: viability, T/C [1] 77.6% | viability, T/C [2] 30.6% | viability, T/C [7] 32.7%
> 8.02: pIC50 (second compound 0.00949 µM) | pIC50 (second compound 0.03 µM) | pIC50 (second compound 0.0949 µM) | pIC50 (second compound 0.3 µM)
active: viability, T/C [3] 3.68% | viability, T/C [4] 4.09% | viability, T/C [5] 2.62% | viability, T/C [6] 0.44% | viability, T/C [8] 9.13% | viability, T/C [9] 3.26% | viability, T/C [10] 4.02% | viability, T/C [11] 2.08% | viability, T/C [12] 0.35% | viability, T/C [13] 6.55% | viability, T/C [14] 4.21% | viability, T/C [15] 3.3% | viability, T/C [16] 3.14% | viability, T/C [17] 2.37% | viability, T/C [18] 0.13% | viability, T/C [19] 4.97% | viability, T/C [20] 3.98% | viability, T/C [21] 4.07% | viability, T/C [22] 3.55% | viability, T/C [23] 2.72% | viability, T/C [24] 0.42% | viability, T/C [25] 4.42% | viability, T/C [26] 3.95% | viability, T/C [27] 3.59% | viability, T/C [28] 3.99% | viability, T/C [29] 3.16% | viability, T/C [30] 0.24%
7.73: pIC50 (second compound 0.003 µM)

Cn1ncnc1[C@H]1c2n[nH]c(=O)c3cc(F)cc(c23)N[C@@H]1c1ccc(F)cc1 + CC[C@@]1(O)C(=O)OCc2c1cc1n(c2=O)Cc2cc3c(CN(C)C)c(O)ccc3nc2-1
inactive: viability, T/C [1] 29.2% | viability, T/C [2] 16.7%
active: viability, T/C [3] 9.97% | viability, T/C [4] 6.78% | viability, T/C [5] 5.19% | viability, T/C [6] 4.32% | viability, T/C [7] 7.72% | viability, T/C [8] 5.97% | viability, T/C [9] 5.6% | viability, T/C [10] 5.88% | viability, T/C [11] 5.84% | viability, T/C [12] 3.69% | viability, T/C [13] 5.64% | viability, T/C [14] 5.6% | viability, T/C [15] 5.25% | viability, T/C [16] 5.52% | viability, T/C [17] 4.93% | viability, T/C [18] 3.48% | viability, T/C [19] 4.26% | viability, T/C [20] 4.04% | viability, T/C [21] 3.48% | viability, T/C [22] 3.91% | viability, T/C [23] 3.43% | viability, T/C [24] 2.72% | viability, T/C [25] 3.45% | viability, T/C [26] 4.01% | viability, T/C [27] 3.37% | viability, T/C [28] 3.5% | viability, T/C [29] 2.94% | viability, T/C [30] 2.13%
> 8.02: pIC50 (second compound 0.003 µM) | pIC50 (second compound 0.00949 µM) | pIC50 (second compound 0.03 µM) | pIC50 (second compound 0.0949 µM) | pIC50 (second compound 0.3 µM)

O=C(c1cc(Cc2n[nH]c(=O)c3ccccc23)ccc1F)N1CCN(C(=O)C2CC2)CC1 + CC[C@@]1(O)C(=O)OCc2c1cc1n(c2=O)Cc2cc3c(CN(C)C)c(O)ccc3nc2-1
inactive: viability, T/C [3] 63.4% | viability, T/C [4] 56.4% | viability, T/C [5] 41.4% | viability, T/C [6] 18.8% | viability, T/C [9] 14.3% | viability, T/C [10] 11.9%
6.30: pIC50 (second compound 0.003 µM)
active: viability, T/C (second compound 0.003 µM, first compound 9.49 µM) 7.55% | viability, T/C (second compound 0.003 µM, first compound 30 µM) 7.59% | viability, T/C [11] 10.8% | viability, T/C [12] 7.16% | viability, T/C (second compound 0.00949 µM, first compound 9.49 µM) 6.35% | viability, T/C (second compound 0.00949 µM, first compound 30 µM) 7% | viability, T/C [15] 5.6% | viability, T/C [16] 5.95% | viability, T/C [17] 5.27% | viability, T/C [18] 6.36% | viability, T/C (second compound 0.03 µM, first compound 9.49 µM) 5.82% | viability, T/C (second compound 0.03 µM, first compound 30 µM) 6.47% | viability, T/C [21] 5.02% | viability, T/C [22] 4.58% | viability, T/C [23] 4.8% | viability, T/C [24] 4.07% | viability, T/C (second compound 0.0949 µM, first compound 9.49 µM) 4.67% | viability, T/C (second compound 0.0949 µM, first compound 30 µM) 5.85% | viability, T/C [27] 3.79% | viability, T/C [28] 4.17% | viability, T/C [29] 3.66% | viability, T/C [30] 4.24% | viability, T/C (second compound 0.3 µM, first compound 9.49 µM) 3.48% | viability, T/C (second compound 0.3 µM, first compound 30 µM) 4.55%
> 7.02: pIC50 (second compound 0.00949 µM) | pIC50 (second compound 0.03 µM) | pIC50 (second compound 0.0949 µM) | pIC50 (second compound 0.3 µM)
